According to patent publication US10206394B2, “Herbicidal compounds” (Syngenta Participations AG, priority 2014, dated 2019):
Where two headings read alike, the source gives them in different places.

Key:
Test in all cases: Glasshouse assay for herbicidal activity (pre- and post-emergence), percentage phytotoxicity
Format in all cases: in vivo
[1] = test system: Alopecurus myosuroides (ALOMY); conditions: Alopecurus myosuroides
Outline: (§1)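 Potted test plants in standard soil received the compound pre-emergence (day 1) or post-emergence (about day 12). Evaluation: visual damage score from 0% (none) to 100% (total), 15 days after application post-emergence, 20 days pre-emergence.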

Lolium perenne (LOLPE) = conditions: Lolium perenne
Outline: as §1

[2] = test system: Echinochloa crus-galli (ECHCG); conditions: Echinochloa crus-galli
Outline: as §1

Avena fatua (AVEFA) = conditions: Avena fatua
Outline: as §1

[3] = post-emergence, 360 h, POST-emergence, rate 250 g/ha, visual score 15 DAA (100%=total damage, 0%=no damage), read-out: Post-emergence herbicidal activity (percentage phytotoxicity) ALOMY POST
[4] = pre-emergence, 480 h, PRE-emergence, rate 250 g/ha, visual score 20 DAA (100%=total damage, 0%=no damage), read-out: Pre-emergence herbicidal activity (percentage phytotoxicity) ALOMY PRE
[5] = post-emergence, 360 h, POST-emergence, rate 250 g/ha, visual score 15 DAA (100%=total damage, 0%=no damage), read-out: Post-emergence herbicidal activity (percentage phytotoxicity) LOLPE POST
[6] = pre-emergence, 480 h, PRE-emergence, rate 250 g/ha, visual score 20 DAA (100%=total damage, 0%=no damage), read-out: Pre-emergence herbicidal activity (percentage phytotoxicity) LOLPE PRE
[7] = post-emergence, 360 h, POST-emergence, rate 250 g/ha, visual score 15 DAA (100%=total damage, 0%=no damage), read-out: Post-emergence herbicidal activity (percentage phytotoxicity) ECHCG POST
[8] = pre-emergence, 480 h, PRE-emergence, rate 250 g/ha, visual score 20 DAA (100%=total damage, 0%=no damage), read-out: Pre-emergence herbicidal activity (percentage phytotoxicity) ECHCG PRE
[9] = post-emergence, 360 h, POST-emergence, rate 250 g/ha, visual score 15 DAA (100%=total damage, 0%=no damage), read-out: Post-emergence herbicidal activity (percentage phytotoxicity) AVEFA POST
[10] = pre-emergence, 480 h, PRE-emergence, rate 250 g/ha, visual score 20 DAA (100%=total damage, 0%=no damage), read-out: Pre-emergence herbicidal activity (percentage phytotoxicity) AVEFA PRE

Cc1cc(-c2ncc(Cl)cn2)cc(C)c1C1=C(OC(=O)C(C)(C)C)CC(CC(=O)NC(C)(C)C)C1=O (stereo not shown) [Compound P3]
pest or weed control at 250 g/ha ([1]; post-emergence, 360 h, post-emergence, 250 g/ha, 15 DAA, visual score (100%=total damage; 0%=no damage), read-out: ALOMY POST herbicidal activity (percentage phytotoxicity)): 100%
pest or weed control at 250 g/ha ([1]; pre-emergence, 480 h, pre-emergence, 250 g/ha, 20 DAA, visual score (100%=total damage; 0%=no damage), read-out: ALOMY PRE herbicidal activity (percentage phytotoxicity)): 100%
pest or weed control at 250 g/ha (Lolium perenne (LOLPE); post-emergence, 360 h, post-emergence, 250 g/ha, 15 DAA, visual score (100%=total damage; 0%=no damage), read-out: LOLPE POST herbicidal activity (percentage phytotoxicity)): 100%
pest or weed control at 250 g/ha (Lolium perenne (LOLPE); pre-emergence, 480 h, pre-emergence, 250 g/ha, 20 DAA, visual score (100%=total damage; 0%=no damage), read-out: LOLPE PRE herbicidal activity (percentage phytotoxicity)): 100%
pest or weed control at 250 g/ha ([2]; post-emergence, 360 h, post-emergence, 250 g/ha, 15 DAA, visual score (100%=total damage; 0%=no damage), read-out: ECHCG POST herbicidal activity (percentage phytotoxicity)): 100%
pest or weed control at 250 g/ha ([2]; pre-emergence, 480 h, pre-emergence, 250 g/ha, 20 DAA, visual score (100%=total damage; 0%=no damage), read-out: ECHCG PRE herbicidal activity (percentage phytotoxicity)): 100%
pest or weed control at 250 g/ha (Avena fatua (AVEFA); post-emergence, 360 h, post-emergence, 250 g/ha, 15 DAA, visual score (100%=total damage; 0%=no damage), read-out: AVEFA POST herbicidal activity (percentage phytotoxicity)): 90%
pest or weed control at 250 g/ha (Avena fatua (AVEFA); pre-emergence, 480 h, pre-emergence, 250 g/ha, 20 DAA, visual score (100%=total damage; 0%=no damage), read-out: AVEFA PRE herbicidal activity (percentage phytotoxicity)): 80%

Cc1cc(-c2ncc(F)cn2)cc(C)c1C1C(=O)CC(CC(=O)NC(C)C)C1=O (stereo not shown) [Compound B275]
pest or weed control at 250 g/ha [1, 3]: 100%
pest or weed control at 250 g/ha [1, 4]: 100%
pest or weed control at 250 g/ha (Lolium perenne (LOLPE); [5]): 100%
pest or weed control at 250 g/ha (Lolium perenne (LOLPE); [6]): 100%
pest or weed control at 250 g/ha [2, 7]: 100%
pest or weed control at 250 g/ha [2, 8]: 100%
pest or weed control at 250 g/ha (Avena fatua (AVEFA); [9]): 100%
pest or weed control at 250 g/ha (Avena fatua (AVEFA); [10]): 100%

COc1ccc(NC(=O)CC2CC(=O)C(c3c(C)cc(C)cc3C)C2=O)cc1OC (stereo not shown) [Compound B2]
pest or weed control at 250 g/ha ([1]; post-emergence, 360 h, 250 g/ha, post-emergence, 15 DAA, visual assessment (100%=total damage, 0%=no damage), read-out: Post-emergence herbicidal activity (percentage phytotoxicity) ALOMY POST): 40%
pest or weed control at 250 g/ha ([1]; pre-emergence, 480 h, 250 g/ha, pre-emergence, 20 DAA, visual assessment (100%=total damage, 0%=no damage), read-out: Pre-emergence herbicidal activity (percentage phytotoxicity) ALOMY PRE): 40%
pest or weed control at 250 g/ha (Lolium perenne (LOLPE); post-emergence, 360 h, 250 g/ha, post-emergence, 15 DAA, visual assessment (100%=total damage, 0%=no damage), read-out: Post-emergence herbicidal activity (percentage phytotoxicity) LOLPE POST): 30%
pest or weed control at 250 g/ha (Lolium perenne (LOLPE); pre-emergence, 480 h, 250 g/ha, pre-emergence, 20 DAA, visual assessment (100%=total damage, 0%=no damage), read-out: Pre-emergence herbicidal activity (percentage phytotoxicity) LOLPE PRE): 80%
pest or weed control at 250 g/ha ([2]; post-emergence, 360 h, 250 g/ha, post-emergence, 15 DAA, visual assessment (100%=total damage, 0%=no damage), read-out: Post-emergence herbicidal activity (percentage phytotoxicity) ECHCG POST): 10%
pest or weed control at 250 g/ha ([2]; pre-emergence, 480 h, 250 g/ha, pre-emergence, 20 DAA, visual assessment (100%=total damage, 0%=no damage), read-out: Pre-emergence herbicidal activity (percentage phytotoxicity) ECHCG PRE): 80%
pest or weed control at 250 g/ha (Avena fatua (AVEFA); post-emergence, 360 h, 250 g/ha, post-emergence, 15 DAA, visual assessment (100%=total damage, 0%=no damage), read-out: Post-emergence herbicidal activity (percentage phytotoxicity) AVEFA POST): 30%
pest or weed control at 250 g/ha (Avena fatua (AVEFA); pre-emergence, 480 h, 250 g/ha, pre-emergence, 20 DAA, visual assessment (100%=total damage, 0%=no damage), read-out: Pre-emergence herbicidal activity (percentage phytotoxicity) AVEFA PRE): 60%

Cc1cc(-c2ncc(Cl)cn2)cc(C)c1C1C(=O)CC(CC(=O)NCc2cccc(Cl)c2)C1=O (stereo not shown) [Compound B354]
pest or weed control at 250 g/ha ([1]; post-emergence, 360 h, Rate 250 g/ha, post-emergence, visual assessment 15 DAA, 100%=total damage, 0%=no damage, read-out: Post-emergence herbicidal activity (percentage phytotoxicity) ALOMY POST): 90%
pest or weed control at 250 g/ha ([1]; pre-emergence, 480 h, Rate 250 g/ha, pre-emergence, visual assessment 20 DAA, 100%=total damage, 0%=no damage, read-out: Pre-emergence herbicidal activity (percentage phytotoxicity) ALOMY PRE): 70%
pest or weed control at 250 g/ha (Lolium perenne (LOLPE); post-emergence, 360 h, Rate 250 g/ha, post-emergence, visual assessment 15 DAA, 100%=total damage, 0%=no damage, read-out: Post-emergence herbicidal activity (percentage phytotoxicity) LOLPE POST): 90%
pest or weed control at 250 g/ha (Lolium perenne (LOLPE); pre-emergence, 480 h, Rate 250 g/ha, pre-emergence, visual assessment 20 DAA, 100%=total damage, 0%=no damage, read-out: Pre-emergence herbicidal activity (percentage phytotoxicity) LOLPE PRE): 80%
pest or weed control at 250 g/ha ([2]; post-emergence, 360 h, Rate 250 g/ha, post-emergence, visual assessment 15 DAA, 100%=total damage, 0%=no damage, read-out: Post-emergence herbicidal activity (percentage phytotoxicity) ECHCG POST): 100%
pest or weed control at 250 g/ha ([2]; pre-emergence, 480 h, Rate 250 g/ha, pre-emergence, visual assessment 20 DAA, 100%=total damage, 0%=no damage, read-out: Pre-emergence herbicidal activity (percentage phytotoxicity) ECHCG PRE): 90%
pest or weed control at 250 g/ha (Avena fatua (AVEFA); post-emergence, 360 h, Rate 250 g/ha, post-emergence, visual assessment 15 DAA, 100%=total damage, 0%=no damage, read-out: Post-emergence herbicidal activity (percentage phytotoxicity) AVEFA POST): 100%
pest or weed control at 250 g/ha (Avena fatua (AVEFA); pre-emergence, 480 h, Rate 250 g/ha, pre-emergence, visual assessment 20 DAA, 100%=total damage, 0%=no damage, read-out: Pre-emergence herbicidal activity (percentage phytotoxicity) AVEFA PRE): 80%

Cc1cc(-c2ncc(Br)cn2)cc(C)c1C1C(=O)CC(CC(=O)N2CCOCC2)C1=O (stereo not shown) [Compound B285]
pest or weed control at 250 g/ha [1, 3]: 100%
pest or weed control at 250 g/ha [1, 4]: 90%
pest or weed control at 250 g/ha (Lolium perenne (LOLPE); [5]): 100%
pest or weed control at 250 g/ha (Lolium perenne (LOLPE); [6]): 100%
pest or weed control at 250 g/ha [2, 7]: 100%
pest or weed control at 250 g/ha [2, 8]: 100%
pest or weed control at 250 g/ha (Avena fatua (AVEFA); [9]): 100%
pest or weed control at 250 g/ha (Avena fatua (AVEFA); [10]): 90%
